Positions count from the first letter of the chain named.

For experiment [1], the target named is T1, maize endosperm AGPase, large subunit variant RGR (Q96R, D161G, A443R; numbering of SEQ ID NO: 20) (Zea mays, UniProt P55241+Q84PF5, A443R/D161G/Q96R).
T1 sequence (P55241 46-516 A443R/D161G/Q96R): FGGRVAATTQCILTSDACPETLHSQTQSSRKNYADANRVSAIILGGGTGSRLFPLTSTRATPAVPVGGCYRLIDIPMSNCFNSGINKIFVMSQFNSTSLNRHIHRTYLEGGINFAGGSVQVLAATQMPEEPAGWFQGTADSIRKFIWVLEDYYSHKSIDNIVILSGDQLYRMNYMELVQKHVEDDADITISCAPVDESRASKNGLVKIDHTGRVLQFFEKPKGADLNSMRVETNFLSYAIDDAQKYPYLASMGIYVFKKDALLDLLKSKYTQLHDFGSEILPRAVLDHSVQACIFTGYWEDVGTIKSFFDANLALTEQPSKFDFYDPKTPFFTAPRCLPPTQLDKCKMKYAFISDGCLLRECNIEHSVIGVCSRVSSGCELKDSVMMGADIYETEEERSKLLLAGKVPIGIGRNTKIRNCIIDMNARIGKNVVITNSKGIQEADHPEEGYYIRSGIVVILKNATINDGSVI
T1 sequence (Q84PF5 1-474): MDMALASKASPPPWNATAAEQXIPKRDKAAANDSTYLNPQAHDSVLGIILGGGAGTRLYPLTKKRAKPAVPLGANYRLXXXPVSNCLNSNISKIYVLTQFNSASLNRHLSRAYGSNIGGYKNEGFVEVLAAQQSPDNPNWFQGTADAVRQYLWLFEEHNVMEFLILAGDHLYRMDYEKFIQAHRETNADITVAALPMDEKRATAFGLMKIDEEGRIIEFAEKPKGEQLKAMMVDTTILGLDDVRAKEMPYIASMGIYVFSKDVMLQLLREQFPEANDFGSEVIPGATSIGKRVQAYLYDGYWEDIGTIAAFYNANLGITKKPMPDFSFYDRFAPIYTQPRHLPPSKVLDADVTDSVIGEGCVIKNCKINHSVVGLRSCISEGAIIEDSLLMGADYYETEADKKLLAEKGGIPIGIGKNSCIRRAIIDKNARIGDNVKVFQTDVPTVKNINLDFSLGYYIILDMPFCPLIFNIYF
Nature of the experiment: Apparent kinetic constants with 3-PGA, 37° C., RGR. The class given is biochemical. The note with it: read-out: ATP Km. The text has this:
(§1) The small and large subunit plasmids of maize endosperm AGPase (pMONcBt2 and pMONcSh2, respectively) (Giroux et al., 1996) were expressed in E. coli AC70R1-504 cells (Iglesias et al., 1993) as previously described (Boehlein et al., 2008).
(§2) An endpoint assay was used to determine the rate of the AGPase reaction by coupling the formation of PPi to a decrease in NADH concentration (Boehlein et al., 2008). […] The Michaelis constants (Km) were obtained by varying one substrate in the presence of saturating concentrations of the second substrate. The activation constants were obtained by varying the activator at fixed levels of both substrates. All reactions were performed at 37° C. and mixes were prewarmed before starting the reaction with enzyme. […] The absorbance at 340 nm was monitored after 30 min and the amount of PPi produced was determined from a standard curve using PPi in complete reaction mixtures lacking AGPase. Blank samples contained complete reaction mixtures without enzyme and the change in absorbance between the blank and the reaction was used to calculate the amount of PPi produced. […]
(§3) The apparent Michaelis constant and maximum velocity of each reaction was calculated from a V vs. S plots using nonlinear regression analysis and the following equation, v=VmaxS/(Km+S), where v is the measured velocity, Vmax is the maximum velocity, S is the substrate concentration. […]

The target in experiment [2] is T2, maize endosperm AGPase, large subunit variant GGR (Q96G, D161G, A443R; numbering of SEQ ID NO: 20) (Zea mays, UniProt P55241+Q84PF5, A443R/D161G/Q96G).
T2 sequence (P55241 46-516 A443R/D161G/Q96G): T1 sequence (P55241 46-516 A443R/D161G/Q96R) with R51G
T2 sequence (Q84PF5 1-474): T1 sequence (Q84PF5 1-474)
Nature of the experiment: Apparent kinetic constants with 3-PGA, 37° C., GGR. Type of experiment: biochemical. The settings on record: read-out: ATP Km.
Description: as §1, §2, §3

For experiment [3], the system named is maize endosperm AGPase, evolutionary mutant SH2-E (SH2E). The settings on record: absence of 3-PGA, ATP varied, Pi inhibition, NC, read-out: Km (ATP); cited from earlier work.

By Km is commonly meant the concentration of substrate that gives half-maximal velocity. On to `Nc1ncnc2c1ncn2[C@@H]1O[C@H](COP(=O)(O)OP(=O)(O)OP(=O)(O)O)[C@@H](O)[C@H]1O` [ATP], for which the Michaelis constant (Km) in experiment [1] was 62 µM; in experiment [2] it was 57 µM; in experiment [3], 970 µM.

Values taken from patent US9650616B2, “Methods for increasing grain yield” (University of Florida Research Foundation, Inc., priority 2014, dated 2017).
